We go through four compounds from US20260167622A1, “PAN-KRAS DEGRADING AGENT, AND PREPARATION METHOD THEREFOR AND USE THEREOF” (LEADINGTAC PHARMACEUTICAL (SHAOXING) CO., LTD., priority 2022, published 2026).

pIC50: −log10 of the molar value.

Common to all, as to format: cell-based
Assay [1] relates to KRAS G12V mutant human colorectal cancer cell SW620. Put plainly: 3D cell proliferation inhibition assay, SW620. The following applies: SW-620, 168 h, 3D culture, 7 days, CTG. Put shortly:
(§1)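 Seven-day 3D growth at 37 °C in low-adsorption wells, 5×10^2 cells/well except MKN1 (1×10^3), final compound range 10000–0.026 nM in 0.2% DMSO. CTG luminescence read-out; percent inhibition set against DMSO and medium-only wells, IC50 by curve fitting.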

Assay [2] concerns the target T1, KRAS G13D protein in DLD-1 cells (Homo sapiens, UniProt P01116, G13D).
T1 construct: endogenous in cells; host or cells: DLD-1
Put plainly: KRAS degradation assay (Western Blot) in DLD-1 cells. The following applies: 24 h. Put shortly:
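After a 24 h treatment spanning 0.03–3000 nM, remaining KRAS protein is quantified by ECL immunoblot against a β-actin internal reference. Degradation is expressed relative to vehicle-treated cells and curve-fitted for DC50 and Dmax.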
On the technique in general: In western blotting, separated proteins are transferred to a membrane and probed.

Assay [3] addresses T2, KRAS G12V protein in SW620 cells (Homo sapiens, UniProt P01116, G12V).
T2 construct: endogenous in cells; host or cells: SW620
Put plainly: KRAS degradation assay (Western Blot) in SW620 cells. The following applies: for DC50: 24 h; for Dmax: SW-620, 24 h. Put shortly:
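5×10^5 cells/well; cpd 0.03–3000 nM final, 0.25% DMSO, 24 h, 37 °C/5% CO2. RIPA lysis, 5 µg protein/lane, anti-KRAS WB, β-actin loading ref. DC50/Dmax by nonlinear fit.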

The test system of assay [4] is KRAS G12C mutant human non-small cell lung cancer cell NCI-H358. Put plainly: 3D cell proliferation inhibition assay, NCI-H358. The conditions noted are these: NCI-H358, 168 h, 3D culture, 7 days, CTG. The essentials:
as §1

In assay [5] the target is T3, KRAS G12C protein in NCI-H358 cells (Homo sapiens, UniProt P01116, G12C).
T3 construct: endogenous in cells; host or cells: NCI-H358
Nature of the assay: KRAS degradation assay (Western Blot) in NCI-H358 cells. The conditions noted are these: 24 h. The text has this:
(§2) Test Example 5: KRAS G12C, KRAS G12D, KRAS G12V, KRAS G13D, and KRAS WT (Expanded) Degradation Assays
(§3) The degradation effect of the compounds on KRAS was investigated on KRAS G12C mutant human non-small cell lung cancer cell NCI-H358, KRAS G12D mutant human metastatic pancreatic cancer cell AsPc-1, KRAS G12D mutant human lung cancer cell A427, KRAS G12V mutant human colorectal cancer cell SW620, KRAS G12V mutant human lung cancer cell SW900, KRAS G13D mutant human colorectal cancer epithelial cell DLD-1, and KRAS WT human gastric cancer cell MKN-1. The specific procedures were as follows: 0.95 mL of cells were seeded into each well of a 24-well cell culture plate to achieve a cell density of 5×10^5 cells/well; and the cell plate was incubated in an incubator at 37° C. with 5% CO2 overnight. Then 50 μL of the compound solution after dilution was added to each of the wells with the corresponding cells, so that the final concentration of the compound was in a range of 0.03-3000 nM. The final concentration of DMSO was 0.25%. After the compounds were added, the cell plate was incubated in an incubator at 37° C. with 5% CO2 for 24 h. The culture medium in the 24-well cell culture plate was then removed, and the plate was washed twice with 1×PBS (KeyGEN). 120 μL of RIPA (strong) lysis buffer (Beyotime) (supplemented with 1 mM phenylmethylsulfonyl fluoride, a protease inhibitor mixture (Beyotime), and a protease phosphatase inhibitor mixture (Beyotime)) was added to lyse adherent SW900 cells at the bottom of the cell culture plate. After the plate was left to stand on ice for 30 min, the protein lysate in each well was transferred to a 1.5 mL centrifuge tube and centrifuged at 15000 g for 20 min at 4° C. The cell lysate supernatants after centrifugation were cryopreserved in a refrigerator at −80° C. for later use.
(§4) After the samples of the cell lysate supernatants that had been prepared were thawed from the refrigerator at −80° C., the total protein concentrations of the cell lysates were determined using a BCA protein quantification kit (Tiangen). The total protein concentrations of the samples were then adjusted to 0.5 μg/μL with PBS and 5×SDS-PAGE protein loading buffer (Beyotime), and the samples were incubated in a water bath at 100° C. for 15 min. The samples were then incubated in an ice bath for 5 min and centrifuged at 14000 g for 1 min at 4° C., and the supernatants were mixed well as loading samples for the Western Blot assay. The samples were loaded into wells of a 10% precast gel (KeyGEN) with a loading volume of 10 μL (total protein: 5 μg), a sufficient Tris-MOPS-SDS running buffer (Adamas) was added, and then electrophoresis was performed at a constant voltage of 120 V for 55 min. After the electrophoresis, the proteins on the gel were transferred to PVDF membranes at a constant current of 250 mA for 55 min. After the membrane transfer, the PVDF membranes were incubated in 1× Quick Block blocking buffer (Beyotime)at room temperature for 30 min. After the blocking, the PVDF membranes were separately incubated at 4° C. overnight with the KRAS antibody (Abcam) diluted in a ratio of 1:1000 and the β-actin antibody (Abcam) diluted in a ratio of 1:2000 in 5% BSA as the diluent, and then washed with 1×TBST buffer (2.4 g of Tris, 8.8 g of NaCl, 1.5 mL of Tween 20, with pH adjusted to 7.4, with the volume brought to 1 L) 3 times for 10 min/time. The membranes were incubated with a secondary antibody (Abcam) diluted in 5% BSA at room temperature for 2 h, and then washed with 1×TBST buffer 3 times for 10 min/time. Finally, the membranes were incubated with Clarity Western ECL Substrate (BIO-RAD) for 5 min for luminescence and color development, and a ChemiScope 6200 Touch chemiluminescence imaging system (Clinx) was used for color development and protein mapping. Gray value analysis of the protein maps was performed using the chemiluminescence analysis software (Clinx). […]

In assay [6] the test system is KRAS WT human gastric cancer cell MKN1. Nature of the assay: 3D cell proliferation inhibition assay, MKN1. The conditions noted are these: MKN-1, 168 h, 3D culture, 7 days, CTG. Put shortly:
as §1

The target in assay [7] is T4, KRAS WT (expanded) protein in MKN1 cells (Homo sapiens, UniProt P01116).
T4 construct: endogenous in cells; host or cells: MKN1 (MKN-1)
Put plainly: KRAS degradation assay (Western Blot) in MKN1 cells. The following applies: for DC50: 24 h; for Dmax: MKN-1, 24 h.
From the text: as §2, §3, §4

In assay [8] the test system is KRAS G13D mutant human colorectal cancer epithelial cell DLD-1. Nature of the assay: 3D cell proliferation inhibition assay, DLD-1. The conditions noted are these: DLD-1, 168 h, 3D culture, 7 days, CTG. Put shortly: as §1
Assay [9] has as its system KRAS G12D mutant human metastatic pancreatic cancer cell AsPc-1. Put plainly: 3D cell proliferation inhibition assay, AsPc-1. The conditions noted are these: ASPC1, 168 h, 3D culture, 7 days, CTG. The essentials:
as §1

Assay [10] has as its target T5, KRAS G12D protein in AsPc-1 cells (Homo sapiens, UniProt P01116, G12D).
T5 construct: endogenous in cells; host or cells: AsPc-1
Put plainly: KRAS degradation assay (Western Blot) in AsPc-1 cells. The following applies: for DC50: 24 h; for Dmax: ASPC1, 24 h.
From the text: as §2, §3, §4

T5 sequence (P01116 1-188 isoform P01116-2 G12D): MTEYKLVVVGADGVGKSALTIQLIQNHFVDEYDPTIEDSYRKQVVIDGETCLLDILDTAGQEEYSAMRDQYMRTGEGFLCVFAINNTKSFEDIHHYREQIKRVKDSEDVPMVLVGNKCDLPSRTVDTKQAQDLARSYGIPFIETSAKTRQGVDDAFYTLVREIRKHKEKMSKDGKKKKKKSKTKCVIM
T1 sequence (P01116 1-188 isoform P01116-2 G13D): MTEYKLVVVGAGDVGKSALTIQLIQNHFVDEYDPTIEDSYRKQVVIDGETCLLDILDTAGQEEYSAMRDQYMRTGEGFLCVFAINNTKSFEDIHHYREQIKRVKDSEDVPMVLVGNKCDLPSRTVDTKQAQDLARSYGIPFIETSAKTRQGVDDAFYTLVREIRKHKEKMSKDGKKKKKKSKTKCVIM
T4 sequence (P01116 1-188 isoform P01116-2): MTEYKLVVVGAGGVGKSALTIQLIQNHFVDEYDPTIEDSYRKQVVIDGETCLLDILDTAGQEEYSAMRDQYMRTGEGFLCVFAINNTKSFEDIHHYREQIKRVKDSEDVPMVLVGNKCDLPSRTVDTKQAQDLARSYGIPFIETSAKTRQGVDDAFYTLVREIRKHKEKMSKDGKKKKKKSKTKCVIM
T2 sequence (P01116 1-188 isoform P01116-2 G12V): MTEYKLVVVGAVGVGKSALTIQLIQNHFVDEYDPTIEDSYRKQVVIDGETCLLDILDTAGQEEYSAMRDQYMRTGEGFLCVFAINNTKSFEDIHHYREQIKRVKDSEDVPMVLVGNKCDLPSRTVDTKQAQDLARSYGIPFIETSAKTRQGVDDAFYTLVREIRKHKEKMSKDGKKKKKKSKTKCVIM
T3 sequence (P01116 1-188 isoform P01116-2 G12C): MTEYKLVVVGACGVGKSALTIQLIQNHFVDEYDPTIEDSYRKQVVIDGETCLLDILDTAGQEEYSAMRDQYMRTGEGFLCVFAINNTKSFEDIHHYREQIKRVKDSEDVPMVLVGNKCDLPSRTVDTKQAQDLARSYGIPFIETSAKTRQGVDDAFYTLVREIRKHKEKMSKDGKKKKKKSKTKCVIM

Take `C#Cc1c(F)ccc2cc(O)cc(-c3ncc4c(N5CCC[C@@](C)(O)C5)nc(OC[C@H](C)CN5CCN(CC6CCC7(CC6)CCN(C(=O)c6ccc(OC)c(N8CCC(=O)NC8=O)c6)CC7)CC5)nc4c3F)c12` [Example 46, 1-(5-(9-((4-((R)-3-((7-(8-ethynyl-7-fluoro-3-hydroxynaphthalen-1-yl)-8-fluoro-4-((R)-3-hydroxy-3-methylpiperidin-1-yl)pyrido[4,3-d]pyrimidin-2-yl)oxy)-2-methylpropyl)piperazin-1-yl)methyl)-3-azaspiro[5.5]undecane-3-carbonyl)-2-methoxyphenyl)dihydropyrimidine-2,4(1H,3H)-dione]: the pIC50 in [1] is 8.55; in [4], 7.74; in [6], 8.70; in assay [8], 8.26; in [9], 8.04. Moreover, the 50% degradation concentration (DC50) was 2.36 nM in assay [2], 0.87 nM in [3], 3.14 nM in [5] and 1.26 nM in [7]. In addition, the Dmax was determined as 100% in assay [2], 100% in assay [3], 86.7% in assay [5] and 100% in [7].
For the compound `C#Cc1c(F)ccc2cc(O)cc(-c3ncc4c(N5CCC[C@@](C)(O)C5)nc(OC[C@H](C)CN5CCN(CC6CCC7(CC6)CCN(C(=O)c6ccc(Cl)c(N8CCC(=O)NC8=O)c6)CC7)CC5)nc4c3F)c12` [Example 48, 1-(2-chloro-5-(9-((4-((R)-3-((7-(8-ethynyl-7-fluoro-3-hydroxynaphthalen-1-yl)-8-fluoro-4-((R)-3-hydroxy-3-methylpiperidin-1-yl)pyrido[4,3-d]pyrimidin-2-yl)oxy)-2-methylpropyl)piperazin-1-yl)methyl)-3-azaspiro[5.5]undecane-3-carbonyl)phenyl)dihydropyrimidine-2,4(1H,3H)-dione], the pIC50 in assay [1] is 8.29; in assay [4], 7.07; in assay [6], 7.67; in assay [8], 8.58; in assay [9], 7.63. The DC50 turned out to be 1.34 nM in [2], 1.02 nM in assay [3], 17.2 nM in [5] and 2.33 nM in assay [7]. In addition, the Dmax in [2], in assay [3], in [5] and in [7] was 100% each time.
As for `C#Cc1c(F)ccc2cc(O)cc(-c3ncc4c(N(C)[C@H]5C[C@@H]5F)nc(OC[C@H](C)CN5CCN(CC6CCC7(CC6)CCN(C(=O)c6ccc(OC)c(N8CCC(=O)NC8=O)c6)CC7)CC5)nc4c3F)c12` [Example 50, 1-(5-(9-((4-((R)-3-((7-(8-ethynyl-7-fluoro-3-hydroxynaphthalen-1-yl)-8-fluoro-4-(((1S,2S)-2-fluorocyclopropyl)(methyl)amino)pyrido[4,3-d]pyrimidin-2-yl)oxy)-2-methylpropyl)piperazin-1-yl)methyl)-3-azaspiro[5.5]undecane-3-carbonyl)-2-methoxyphenyl)dihydropyrimidine-2,4(1H,3H)-dione], the negative logarithm of the IC50 (pIC50) is 8.43 in [1]; 7.33 in assay [4]; 7.63 in assay [6]; 7.04 in assay [8]; 6.80 in assay [9]. In addition, the DC50 is 3.98 nM in assay [2], 3.22 nM in [3], 21.6 nM in [5] and 167 nM in assay [10]. Also, the Dmax in assay [2] was 98%; in assay [3] it was 99.4%; in assay [5] it was 96.3%; in assay [10] it was 77.1%.
As for `[2H]C([2H])([2H])c1ccc(C(=O)N2CCC3(CCC(CN4CCN(C[C@@H](C)COc5nc(N6CCC[C@@](C)(O)C6)c6cnc(-c7cc(O)cc8ccc(F)c(C#C)c78)c(F)c6n5)CC4)CC3)CC2)cc1N1CCC(=O)NC1=O` [Example 132, 1-(5-(9-((4-((R)-3-((7-(8-ethynyl-7-fluoro-3-hydroxynaphthalen-1-yl)-8-fluoro-4-((R)-3-hydroxy-3-methylpiperidin-1-yl)pyrido[4,3-d]pyrimidin-2-yl)oxy)-2-methylpropyl)piperazin-1-yl)methyl)-3-azaspiro[5.5]undecane-3-carbonyl)-2-(methyl-d3)phenyl)dihydropyrimidine-2,4(1H,3H)-dione], the pIC50 was 9.37 in assay [1]; 8.21 in [4]; 8.37 in assay [6]; 8.11 in assay [8]; 8.01 in assay [9]. The DC50 in assay [2] was 5.6 nM; in assay [3], 2.42 nM; in assay [5], 1.37 nM; in assay [10] it was 25.2 nM. Further, the Dmax worked out at 100% in assay [2], 100% in [3], 100% in [5] and 95.3% in [10].

In general, pIC50 refers to the IC50 on a negative log10 scale, so that one unit is a factor of ten. Read a high pIC50 as a small IC50. The DC50 is the midpoint of the concentration-degradation curve. A high value points to degradation only at high concentration. Usually Dmax stands for the largest share of the target that was removed. Low values mean shallow degradation, high ones deep degradation.
